The NIST ThermoML archive (doi:10.1016/j.jct.2008.03.015)
Numbers after ± are expanded uncertainties.

Details: Crystal 1

| SMILES | Normal melting temperature [°C] |
| --- | --- |
| CCCCCCCCCCCCCCCCO [1-hexadecanol] | 49.76 ± 0.62 |
| CCCCCCCCCCCCCCCCCCO [1-octadecanol] | 58.38 ± 0.62 |
| CCCCCCCCCCCCO [dodecan-1-ol] | 24.07 ± 0.62 |
